Measured values: PMC7377239, “Cardiovascular Effects of Polychlorinated Biphenyls and Their Major Metabolites” (Environmental Health Perspectives, 2020)
Like-named read-outs stand apart in the source and are kept apart here.

Tested on: iCell cardiomyocytes (human iPSC-derived cardiomyocytes)
Assay: Intracellular Ca2+ flux / beating parameters in iCell cardiomyocytes (FLIPR tetra), 90 min or 24 h
Format: cell-based
Conditions: for activity at 0.01 µM / activity at 0.1 µM / activity at 1 µM / activity at 10 µM / activity at 100 µM: Homo sapiens, Cardiomyocyte, 0.00 µM = 100.00; for activity at 0.1 µM: 0.10 µM
Method in brief: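 PODs were defined as the concentration crossing one SD of the vehicle-control means (0.5% DMSO) on four-parameter logistic fits of Ca2+ trace metrics (peak height, frequency, peak-spacing CV, decay/rise ratio). Traces came from 100 s, 8 Hz FLIPR reads at 37 °C on calcium-dye-loaded iCell cardiomyocytes. Before reading, cells were treated for 90 min or 24 h from 5× chemical plates spanning 0.05–500 µM, in triplicate.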

[1] = 1.5 h, read-out: cm.amp.avg.90min
[2] = 1.5 h, read-out: cm.amp.cv.90min
[3] = 1.5 h, read-out: cm.decay.rise.90min
[4] = 1.5 h, read-out: cm.spacing.cv.90min
[5] = 24 h, read-out: cm.amp.avg.24hrs
[6] = 24 h, read-out: cm.amp.cv.24hrs
[7] = 24 h, read-out: cm.decay.rise.24hrs
[8] = 24 h, read-out: cm.spacing.cv.24hrs

Oc1ccc(-c2ccc(Cl)cc2)cc1 [4'-OH PCB3]
activity at 0.01 µM [1]: 95.4%
activity at 0.01 µM [2]: 111%
activity at 0.01 µM (1.5 h, read-out: cm.bpm.90min): 97.8%
activity at 0.01 µM [3]: 97.5%
activity at 0.01 µM [4]: 120%
activity at 0.1 µM [1]: 101%
activity at 0.1 µM [2]: 107%
activity at 0.1 µM (1.5 h, read-out: cm.bpm.90min): 100%
activity at 0.1 µM [3]: 97.1%
activity at 0.1 µM [4]: 108%
activity at 1 µM [1]: 105%
activity at 1 µM [2]: 100%
activity at 1 µM (1.5 h, read-out: cm.bpm.90min): 104%
activity at 1 µM [3]: 95.9%
activity at 1 µM [4]: 106%
activity at 10 µM [1]: 97.2%
activity at 10 µM [2]: 100%
activity at 10 µM (1.5 h, read-out: cm.bpm.90min): 118%
activity at 10 µM [3]: 89.6%
activity at 10 µM [4]: 116%
activity at 100 µM [1]: 0%
activity at 100 µM [2]: 0%
activity at 100 µM (1.5 h, read-out: cm.bpm.90min): 0%
activity at 100 µM [3]: 0%
activity at 100 µM [4]: 0%
activity at 0.01 µM [5]: 91%
activity at 0.01 µM [6]: 37.2%
activity at 0.01 µM (24 h, read-out: cm.bpm.24hrs): 53.5%
activity at 0.01 µM [7]: 43%
activity at 0.01 µM [8]: 53.2%
activity at 0.1 µM [5]: 31.1%
activity at 0.1 µM [6]: 82.3%
activity at 0.1 µM (24 h, read-out: cm.bpm.24hrs): 54.4%
activity at 0.1 µM [7]: 43.8%
activity at 0.1 µM [8]: 53.7%
activity at 1 µM [5]: 32%
activity at 1 µM [6]: 67.1%
activity at 1 µM (24 h, read-out: cm.bpm.24hrs): 49.6%
activity at 1 µM [7]: 51%
activity at 1 µM [8]: 47.2%
activity at 10 µM [5]: 54.4%
activity at 10 µM [6]: 55%
activity at 10 µM (24 h, read-out: cm.bpm.24hrs): 48.7%
activity at 10 µM [7]: 58.5%
activity at 10 µM [8]: 51.4%
activity at 100 µM [5]: 0%
activity at 100 µM [6]: 0%
activity at 100 µM (24 h, read-out: cm.bpm.24hrs): 0%
activity at 100 µM [7]: 0%
activity at 100 µM [8]: 0%

Oc1cc(Cl)c(-c2cc(Cl)ccc2Cl)cc1Cl [4-OH-PCB 52]
effect on Ca2+ flux (iPSC-CM, 100 μM, because of loss of cell viability): complete block of Ca^2+ flux

Clc1ccc(-c2cc(Cl)c(Cl)c(Cl)c2)cc1Cl [PCB 126, 3,3′,4,4′,5-pentachlorobiphenyl]
inotropic effect (cell beating parameters) (iPSC-CMs, concentration-response 0.01-100 μM, 90 min and 24 h): positive inotropic effects

Oc1ccccc1-c1ccc(Cl)cc1 [2'-OH PCB3]
activity at 0.01 µM [1]: 95.7%
activity at 0.01 µM [2]: 112%
activity at 0.01 µM (1.5 h, read-out: cm.bpm.90min): 102%
activity at 0.01 µM [3]: 98.2%
activity at 0.01 µM [4]: 143%
activity at 0.1 µM [1]: 105%
activity at 0.1 µM [2]: 96.5%
activity at 0.1 µM (1.5 h, read-out: cm.bpm.90min): 102%
activity at 0.1 µM [3]: 98.7%
activity at 0.1 µM [4]: 110%
activity at 1 µM [1]: 102%
activity at 1 µM [2]: 116%
activity at 1 µM (1.5 h, read-out: cm.bpm.90min): 104%
activity at 1 µM [3]: 97.6%
activity at 1 µM [4]: 106%
activity at 10 µM [1]: 0%
activity at 10 µM [2]: 0%
activity at 10 µM (1.5 h, read-out: cm.bpm.90min): 0%
activity at 10 µM [3]: 0%
activity at 10 µM [4]: 0%
activity at 100 µM [1]: 0%
activity at 100 µM [2]: 0%
activity at 100 µM (1.5 h, read-out: cm.bpm.90min): 0%
activity at 100 µM [3]: 0%
activity at 100 µM [4]: 0%
activity at 0.01 µM [5]: 112%
activity at 0.01 µM [6]: 138%
activity at 0.01 µM (24 h, read-out: cm.bpm.24hrs): 118%
activity at 0.01 µM [7]: 82.1%
activity at 0.01 µM [8]: 120%
activity at 0.1 µM [5]: 115%
activity at 0.1 µM [6]: 126%
activity at 0.1 µM (24 h, read-out: cm.bpm.24hrs): 116%
activity at 0.1 µM [7]: 92.5%
activity at 0.1 µM [8]: 111%
activity at 1 µM [5]: 124%
activity at 1 µM [6]: 94.2%
activity at 1 µM (24 h, read-out: cm.bpm.24hrs): 95.5%
activity at 1 µM [7]: 112%
activity at 1 µM [8]: 106%
activity at 10 µM [5]: 104%
activity at 10 µM [6]: 140%
activity at 10 µM (24 h, read-out: cm.bpm.24hrs): 121%
activity at 10 µM [7]: 82.7%
activity at 10 µM [8]: 111%
activity at 100 µM [5]: 0%
activity at 100 µM [6]: 0%
activity at 100 µM (24 h, read-out: cm.bpm.24hrs): 0%
activity at 100 µM [7]: 0%
activity at 100 µM [8]: 0%
